Experiments:
ALS enzyme from Sur = test: ALS enzyme activity assay in leaf extracts (acetoin colorimetry); format: biochemical, Beta vulgaris L.; conditions: Sur single mutant ALS enzyme in vitro
Procedure: Standard procedures were utilized to partially purify ALS from rapidly expanding leaves of greenhouse-grown sugar beet plants (Hart, et al. Weed Science 40:378-383 (1992)). Extracts from heterozygous 93R30B F1 plants and Rel-1 S1 seed were assayed for ALS activity in the presence of logarithmically increasing concentrations of imazethapyr. ALS activity was determined from leaf extracts of REL-1 and 93R30B sugarbeet lines. Plants were grown in the greenhouse as described above to the four to six leaf stage. ALS activity from fresh extracts was determined in the presence of imazethapyr and chlorsulfuron at logarithmically increasing concentrations. […]
(§1) ALS activity is measured by adding 0.2 ml of enzyme preparation (diluted 3:1 with resuspension buffer) to 1.3 ml of reaction buffer (25 mM K2HPO4, pH 7.0, 0.625 mM MgCl2, 25 mM sodium pyruvate, 0.625 mM thiamine pyrophosphate, 1.25 µM flavin adenine dinucleotide) and incubated at 35°C for 1 hour. […]
Purchased acetoin was used as a standard for the colorimetric reaction. Acetoin concentrations were determined by measuring the absorption of the reaction solution at 530 nm. […] Protein concentrations of the extracts was determined by the method of Bradford (Anal. Biochem. 72:248-254 (1976)) using bovine serum albumin for the standard curve.

Sur = test: Whole plant sugarbeet response to postemergence ALS-inhibiting herbicides; format: in vivo, Beta vulgaris L.
ALS extracts from 93R30B = test: ALS enzyme activity assay in leaf extracts (acetoin colorimetry); format: biochemical, Beta vulgaris L.
Procedure: Standard procedures were utilized to partially purify ALS from rapidly expanding leaves of greenhouse-grown sugar beet plants (Hart, et al. Weed Science 40:378-383 (1992)). Extracts from heterozygous 93R30B F1 plants and Rel-1 S1 seed were assayed for ALS activity in the presence of logarithmically increasing concentrations of imazethapyr. ALS activity was determined from leaf extracts of REL-1 and 93R30B sugarbeet lines. Plants were grown in the greenhouse as described above to the four to six leaf stage. ALS activity from fresh extracts was determined in the presence of imazethapyr and chlorsulfuron at logarithmically increasing concentrations. The methods and procedures used were modified from those outlined by Ray (Plant Physiol. 75:827-831 (1984)) and Shaner, et al. (Plant Physiol. 76:545-546 (1984)). Ten g of sugarbeet leaves were homogenized in 40 ml cold homogenization buffer (0.1 M K2HPO4, pH 7.5, 1 mM sodium pyruvate, 0.5 mM MgCl2, 0.5 mM thiamine pyrophosphate, 10 µM of flavin adenine dinucleotide, 10% by vol glycerol) plus 2.5 g polyvinylpolypyrolidone. The homogenate was filtered through eight layers of cheesecloth and centrifuged at 27,000 g for 20 minutes. The supernatant was removed and brought to 50% saturation with (NH4)2SO4. […]
as §1
Purchased acetoin was used as a standard for the colorimetric reaction. Acetoin concentrations were determined by measuring the absorption of the reaction solution at 530 nm. […] Protein concentrations of the extracts was determined by the method of Bradford (Anal. Biochem. 72:248-254 (1976)) using bovine serum albumin for the standard curve. […]

ALS enzyme from Sir-13 = test: as above; format: biochemical, Beta vulgaris L.; conditions: Sir-13 single mutant ALS enzyme in vitro

Compound: CCc1cnc(C2=NC(C)(C(C)C)C(=O)N2)c(C(=O)O)c1 (stereo not drawn) [Imazethapyr]
- resistance of the ALS enzyme (ALS enzyme from Sur): 1 X
- resistance (Sur; Sur single mutant, postemergence to whole plants): 3 fold
- R/S (Sur; Sur whole plant, postemergence, relative to Rel-1): 3 X
- resistance of the ALS enzyme (ALS extracts from 93R30B; SB double mutant ALS enzyme in vitro): > 1000 X
- level of resistance at the enzyme level (ALS extracts from 93R30B; ratio of I50's for the resistant (93R30B, heterozygous F1) and sensitive (Rel-1) lines): 1750 fold
- resistance of the ALS enzyme (ALS enzyme from Sir-13): 40 X

— patent EP0960190B1, “IMI[…] RESISTANT SUGAR BEET PLANTS” (Michigan State University, priority 1996, dated 1998)
